Drawing on ChEMBL document CHEMBL5726327, “Kinase inhibitors” (2017), this text covers IC50 for two compounds.

The assay deals with Glycogen synthase kinase-3 alpha (Homo sapiens, UniProt P49840). Description: Enzyme Inhibition Assay: The inhibitory activities of compounds of the invention against the GSK 3α enzyme isoform (Invitrogen), are evaluated by determining the level of activation/phosphorylation of the target peptide. The GSK3-α protein (500 ng/mL, 2.5 μL) is mixed with the test compound (2.5 μL at either 4 μg/mL, 0.4 μg/mL, 0.04 μg/mL, or 0.004 μg/mL) for 2 hr at RT. The FRET peptide (8 μM, 2.5 μL), which is a phosphorylation target for GSK3α, and ATP (40 μM, 2.5 μL) are then added to the enzyme/compound mixture and the resulting mixture incubated for 1 hr. Development reagent (protease, 5 μL) is added for 1 hr prior to detection in a fluorescence microplate reader (Varioskan® Flash, ThermoFisher Scientific).In all cases, the site-specific protease cleaves non-phosphorylated peptide only and eliminates the FRET signal. Phosphorylation levels of each reaction are calculated using the ratio of coumarin emission (donor) over fluorescein emission (acceptor), for which high ratios indicate […] phosphorylation levels.

Usually IC50 stands for the concentration at which inhibition is half-maximal.

Glycogen synthase kinase-3 alpha, sequence (P49840 whole entry, canonical isoform): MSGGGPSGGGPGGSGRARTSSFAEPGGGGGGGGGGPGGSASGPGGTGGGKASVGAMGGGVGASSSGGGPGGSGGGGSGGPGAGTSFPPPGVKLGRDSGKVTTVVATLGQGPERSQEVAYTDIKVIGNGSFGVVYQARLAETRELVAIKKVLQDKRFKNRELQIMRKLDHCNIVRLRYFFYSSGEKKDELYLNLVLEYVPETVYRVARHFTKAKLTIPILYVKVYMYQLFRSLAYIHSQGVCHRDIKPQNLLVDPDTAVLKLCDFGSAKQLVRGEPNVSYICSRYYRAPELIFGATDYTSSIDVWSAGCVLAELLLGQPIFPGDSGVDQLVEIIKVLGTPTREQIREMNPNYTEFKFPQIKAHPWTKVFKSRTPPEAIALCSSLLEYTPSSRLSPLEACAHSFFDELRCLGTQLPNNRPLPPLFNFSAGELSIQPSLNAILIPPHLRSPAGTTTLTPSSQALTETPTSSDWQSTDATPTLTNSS

`COc1cc(N=S(C)(C)=O)cc(Nc2nccc(Oc3ccc(NC(=O)Nc4cc(C(C)C)nn4-c4ccc(C)cc4)c4ccccc34)n2)c1`: the IC50 is 0.824 µM.
As for `COc1cc(Nc2nccc(Oc3ccc(NC(=O)Nc4cc(C(C)(C)C)nn4-c4ccc(C)cc4)c(Cl)c3Cl)n2)cc(S(=O)(=O)C2CC2)c1`, the IC50 was greater than 10 µM.
